Test results published in PubChem BioAssay AID1963964 (Molecular Pharmacology Branch, DTP, NCI, 2024).

Test system: 997726-040-R-J2-PDC tumor spheroids, viability
Assay: Anticancer human tumor 997726-040-R-J2-PDC patient-derived squamous cell lung carcinoma cell line growth inhibition [PI3K]
Conditions: spheroids with HUVEC and MSC; for IC50: curve of first compound; for viability, T/C: stronger effect = lower value
Summary of the method: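 Spheroid viability read-out. Co-cultures contained the tumor line plus HUVEC and human MSCs. Each agent was paired with a PI3K inhibitor (inavolisib, alpelisib, duvelisib, copanlisib) across half-log dilutions starting at clinical Cmax, or at 10 microM when Cmax was unknown.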
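Further: spheroids exposed to compounds for seven days before readout.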

**Q.** With CNC(=O)c1ccc(N2C(=S)N(c3ccc(C#N)c(C(F)(F)F)c3)C(=O)C2(C)C)cc1F + CC(Nc1ncnc2nc[nH]c12)c1cc2cccc(Cl)c2c(=O)n1-c1ccccc1 as the molecule, how does the IC50 (second compound 0.0316 µM) read?
**A.** > 10 µM

**Q.** What about the IC50 (second compound 0.1 µM) of the same molecule?
**A.** > 10 µM

**Q.** What about the IC50 (second compound 0.316 µM) of the same molecule?
**A.** > 10 µM

**Q.** And the IC50 (second compound 1 µM)?
**A.** > 10 µM

**Q.** And the IC50 (second compound 3.16 µM)?
**A.** > 10 µM

**Q.** What about the IC50 (second compound 10 µM) of the same molecule?
**A.** > 10 µM

**Q.** And the viability, T/C (second compound 0.0316 µM, first compound 0.0316 µM)?
**A.** 88.7%

**Q.** And the viability, T/C (second compound 0.0316 µM, first compound 0.1 µM)?
**A.** 97.8%

**Q.** What about the viability, T/C (second compound 0.0316 µM, first compound 0.316 µM) of the same molecule?
**A.** 115%

**Q.** What about the viability, T/C (second compound 0.0316 µM, first compound 1 µM) of the same molecule?
**A.** 90.4%

**Q.** What about the viability, T/C (second compound 0.0316 µM, first compound 3.16 µM) of the same molecule?
**A.** 102%

**Q.** What about the viability, T/C (second compound 0.0316 µM, first compound 10 µM) of the same molecule?
**A.** 86.7%

**Q.** What about the viability, T/C (second compound 0.1 µM, first compound 0.0316 µM) of the same molecule?
**A.** 98%

**Q.** And the viability, T/C (second compound 0.1 µM, first compound 0.1 µM)?
**A.** 93.6%

**Q.** What about the viability, T/C (second compound 0.1 µM, first compound 0.316 µM) of the same molecule?
**A.** 97%

**Q.** What about the viability, T/C (second compound 0.1 µM, first compound 1 µM) of the same molecule?
**A.** 107%

**Q.** What about the viability, T/C (second compound 0.1 µM, first compound 3.16 µM) of the same molecule?
**A.** 104%

**Q.** What about the viability, T/C (second compound 0.1 µM, first compound 10 µM) of the same molecule?
**A.** 92.4%

**Q.** What about the viability, T/C (second compound 0.316 µM, first compound 0.0316 µM) of the same molecule?
**A.** 104%

**Q.** And the viability, T/C (second compound 0.316 µM, first compound 0.1 µM)?
**A.** 109%

**Q.** And the viability, T/C (second compound 0.316 µM, first compound 0.316 µM)?
**A.** 101%

**Q.** What about the viability, T/C (second compound 0.316 µM, first compound 1 µM) of the same molecule?
**A.** 99.2%

**Q.** What about the viability, T/C (second compound 0.316 µM, first compound 3.16 µM) of the same molecule?
**A.** 104%

**Q.** What about the viability, T/C (second compound 0.316 µM, first compound 10 µM) of the same molecule?
**A.** 90.2%

**Q.** What about the viability, T/C (second compound 1 µM, first compound 0.0316 µM) of the same molecule?
**A.** 96.7%

**Q.** And the viability, T/C (second compound 1 µM, first compound 0.1 µM)?
**A.** 86.6%

**Q.** What about the viability, T/C (second compound 1 µM, first compound 0.316 µM) of the same molecule?
**A.** 78.7%

**Q.** And the viability, T/C (second compound 1 µM, first compound 1 µM)?
**A.** 85%

**Q.** What about the viability, T/C (second compound 1 µM, first compound 3.16 µM) of the same molecule?
**A.** 89%

**Q.** What about the viability, T/C (second compound 1 µM, first compound 10 µM) of the same molecule?
**A.** 86.9%

**Q.** What about the viability, T/C (second compound 3.16 µM, first compound 0.0316 µM) of the same molecule?
**A.** 71%

**Q.** And the viability, T/C (second compound 3.16 µM, first compound 0.1 µM)?
**A.** 73.8%

**Q.** What about the viability, T/C (second compound 3.16 µM, first compound 0.316 µM) of the same molecule?
**A.** 72.6%

**Q.** And the viability, T/C (second compound 3.16 µM, first compound 1 µM)?
**A.** 80%

**Q.** What about the viability, T/C (second compound 3.16 µM, first compound 3.16 µM) of the same molecule?
**A.** 80.3%

**Q.** What about the viability, T/C (second compound 3.16 µM, first compound 10 µM) of the same molecule?
**A.** 66.2%

**Q.** What about the viability, T/C (second compound 10 µM, first compound 0.0316 µM) of the same molecule?
**A.** 59.5%

**Q.** What about the viability, T/C (second compound 10 µM, first compound 0.1 µM) of the same molecule?
**A.** 53.9%

**Q.** What about the viability, T/C (second compound 10 µM, first compound 0.316 µM) of the same molecule?
**A.** 50.6%

**Q.** What about the viability, T/C (second compound 10 µM, first compound 1 µM) of the same molecule?
**A.** 48%

**Q.** What about the viability, T/C (second compound 10 µM, first compound 3.16 µM) of the same molecule?
**A.** 54.4%

**Q.** What about the viability, T/C (second compound 10 µM, first compound 10 µM) of the same molecule?
**A.** 50%
